Measured values published in patent publication US20260022341A1, “METHOD OF GENERATING A HOMOCELLULAR PROGENITOR CELL CULTURE FROM A HETEROCELLULAR TISSUE SAMPLE” (MOSA MEAT B.V., priority 2022, published 2026).
Entries after “also recorded” stand apart in the source; their conditions may differ.

B1: PDGF-bb: growth factor of the base medium (protein, UniProt P01127 82-190, looked up)
Platelet-derived growth …: SLGSLTIAEPAMIAECKTRTEVFEISRRLIDRTNANFLVWPPCVEVQRCSGCCNNRNVQCRPTQVQLRPVQVRKIEIVRKKPIFKKATVTLEDHLACKCETVAAARPVT
B2: vitronectin: extracellular matrix protein used as tissue culture vessel coating (protein, UniProt P04004 20-478, looked up)
Vitronectin: DQESCKGRCTEGFNVDKKCQCDELCSYYQSCCTDYTAECKPQVTRGDVFTMPEDEYTVYDDGEEKNNATVHEQVGGPSLTSDLQAQSKGNPEQTPVLKPEEEAPAPEVGASKPEGIDSRPETLHPGRPQPPAEEELCSGKPFDAFTDLKNGSLFAFRGQYCYELDEKAVRPGYPKLIRDVWGIEGPIDAAFTRINCQGKTYLFKGSQYWRFEDGVLDPDYPRNISDGFDGIPDNVDAALALPAHSYSGRERVYFFKGKQYWEYQFQHQPSQEECEGSSLSAVFEHFAMMQRDSWEDIFELLFWGRTSAGTRQPQFISRDWHGVPGQVDAAMAGRIYISGMAPRPSLAKKQRFRHRNRKGYRSQRGHSRGRNQNSRRPSRATWLSLFSSEESNLGANNYDDYRMDWLVPATCEPIQSVFFFSGDKYYRVNLRTRRVDTVDPPYPRSIAQYWLGCPAPGHL

How the values were obtained:
Type in all cases: cell-based, bovine
SCs and FAPs [1] = test: Compound screening: ratio of SCs in a cell culture of SCs and FAPs after one passage (flow cytometry); conditions: SFM1 base medium, HGF 10×=50 ng/ml, IC 50 μM, HC 138 nM, T3 30 nM, DAPT 5 or 10 μM, FGF2 10×=100 ng/ml, SB203580 10 μM, IL6 20 ng/ml, PDGF-bb 10×=50 ng/ml
Method: Excess visible fat and fibrous tissue was removed prior to dissociation, and muscle fibers were dissociated using collagenase AFC A (Worthington, CLSAFA, 2000U/ml) for 45 minutes at 37° C. Muscle isolates were incubated in 1× ACK erythrocyte lysis buffer for 1 minute at room temperature. Cells were resuspended in a serum-free proliferation medium (SFM1 medium) and immediately seeded into fibronectin (4 μg cm-2 bovine fibronectin; F1141, Merck/Sigma) coated tissue culture plates, and pre-cultured at 37° C. for 72 hours. The serum-free proliferation medium that was used is as disclosed in WO 2021/158103, the contents of which are incorporated herein by reference, and is referred to therein as “SFM1” and contains: albumin (5 mg/ml), somatotropin (2 ng/ml), L-Ascorbic acid 2-phosphate (50 μg/ml), hydrocortisone (36 ng/ml), a-linolenic acid (1 μg/ml), insulin (10 μg/ml), transferrin (5.5 μg/ml), sodium selenite (0.0067 μg/ml), ethanolamine (2 μg/ml), L-alanyl-L-glutamine or glutamine (2 mM), IL-6 (5 ng/ml), FGF2 also referred to as bFGF (10 ng/ml), IGF1 (100 ng/ml), VEGF (10 ng/ml), HGF (5 ng/ml), PDGF-bb (10 ng/ml) and DMEM/F12 basal medium. In the experiments described herein, the SFM1 medium is also referred to as control (Ctrl) or base medium.
After 72 hours of pre-culture, FAPS were sorted using a MACSQuant Tyto sorter (Miltenyi) based on absence of expression of JAM1, CD45, and integrin alpha 7 (ITGA7), and the positive expression of integrin alpha 5 (ITGA5). SCs were sorted based on the absence of expression of JAM1, CD45, ITGA5, and the positive expression of ITGA7.
After FACS sorting, FAP cells and SC cells were cultured on collagen Type I coated tissue culture flasks at 37° C. and 5% CO2 in a serum-free proliferation medium (SFM1). Purities of SCs and FAPs were assessed at the end of each passage by measuring the expression of ITGA7 and ITGA5 via flow cytometry as described below.
Sorted SCs and FAPs were stained with ITGA7-PE and […]. Subsequently, cells were washed and analyzed on a MACSQuant 10 flow analyzer (Miltenyi). Unstained cells were used as a negative control, and to define gating parameters. For the compound screenings (FIG. 2A), percentage of SCs relative to FAPs was determined after one culture passage.
These informed the selection of compounds to favor the proliferation of either of the two cell types. Increasing or decreasing the concentration of growth factors targeting these receptors, or adding compounds that target downstream pathways, altered the growth of SCs relative to FAPs (FIG. 2A, FIG. 2B). As only SCs and FAPs were present in the cell cultures of FIG. 2A and 2B, measuring the relative amount (ratio) of SCs likewise provides information about the relative amount (ratio) of FAPs in the respective media. The ratio of SCs in the respective cell media was normalized against a control ratio (Ctrl; set at 1) which means that a promotion of SCs results in an increase of SCs compared to the control culture (>1), whereas a relative decrease of SCs in the medium compared to the control culture (<1) denotes at the same time for a promotion of FAP proliferation in the respective media.

SCs and FAPs [2] = test: Long-term proliferation assay of SC/FAP mixtures on Laminin 521 with different media (FIGS. 4A-4C); conditions: Laminin 521 coating
Method: (§1) Cells were isolated, purified and cultured as described in Example 1. For long-term proliferation assays, mixtures of SCs and FAPs were cultured on different coatings (FIG. 3) or on Laminin 521 with different media (FIGS. 4A-4C). After every passage, the ratio of SCs to FAPs was measured as the ratio of ITGA7+/ITGA5−cells (SCs) to ITGA7−/ITGA5+cells (FAPs) via flow cytometry, as described in Example 1.
Using Laminin 521 as a coating, we further used the previously identified compounds to adapt the base media (Ctrl) to favor the growth of SCs over FAPs (FIGS. 4A-4C).

SCs and FAPs [3] = test: Long-term proliferation assay of SC/FAP mixtures on different coatings (FIG. 3); conditions: compound applied as culture vessel coating, measured after every passage by ITGA7/ITGA5 flow cytometry
Method: as §1
Using long-term proliferation assays, combined with flow cytometry for ITGA7/ITGA5, we tested different compounds including extracellular matrix proteins tissue culture vessel coatings, and measured percentage of SCs over time in a cell culture that contains SCs and FAPs.

[4] = single media adaptation of base media (Ctrl): 10× HGF or T3 added

Molecule | growth of SCs relative to FAPs (ratio of SCs normalized against control ratio, Ctrl set at 1) (SCs and FAPs [1]) | percentage of SCs in total cells (SCs and FAPs) over long-term proliferation (SCs and FAPs [3]) | further results
COc1ccc2c(c1)c(CC(=O)O)c(C)n2C(=O)c1ccc(Cl)cc1 [IC, Indomethacin] | specifically promoted the proliferation of SCs |  | 
C[S+]([O-])c1ccc(-c2nc(-c3ccc(F)cc3)c(-c3ccncc3)[nH]2)cc1 (stereo not shown) [SB203580, 4-{4-(4-Fluorophenyl)-2-[4-(methanesulfinyl)phenyl]-1H-imidazol-5-yl} pyridine] | specifically promoted the proliferation of SCs |  | 
C[C@]12CCC(=O)C=C1CC[C@@H]1[C@@H]2[C@@H](O)C[C@@]2(C)[C@H]1CC[C@]2(O)C(=O)CO [HC, Hydrocortisone] | specifically promoted the proliferation of SCs |  | 
hepatocyte growth factor [HGF] | specifically promoted the proliferation of SCs |  | relative growth/proliferation of SCs compared to FAPs (SCs and FAPs [2]; [4]): promoted the relative growth/proliferation of SCs compared to FAPs
N[C@@H](Cc1cc(I)c(Oc2ccc(O)c(I)c2)c(I)c1)C(=O)O [T3, Triiodothyronine, reference compound] | specifically promoted the proliferation of SCs |  | relative growth/proliferation of SCs compared to FAPs (SCs and FAPs [2]; [4]): promoted the relative growth/proliferation of SCs compared to FAPs
collagen |  | the proportion of FAPs increased quickly over 3 passages | percentage of SCs in total cells (SCs and FAPs) over long-term proliferation (SCs and FAPs [3]; listed as Collagen): favor proliferation of FAPs
fibroblast growth factor 2 [FGF2] | specifically promoted the proliferation of SCs |  | 
C[C@H](NC(=O)Cc1cc(F)cc(F)c1)C(=O)N[C@H](C(=O)OC(C)(C)C)c1ccccc1 [DAPT] | specifically promoted the proliferation of SCs |  | 
Laminin 521: extracellular matrix protein used as tissue culture vessel coating |  | the percentage of SCs remained high | percentage of SCs in total cells (SCs and FAPs) over long-term proliferation (SCs and FAPs [3]; listed as laminin 521): allow for maintaining high percentages of SCs during proliferation
Interleukin 6 [IL-6] | specifically promoted the proliferation of FAPs |  | 
fibronectin |  | the proportion of FAPs increased quickly over 3 passages; also recorded: favor proliferation of FAPs | 
B1 | specifically promoted the proliferation of FAPs |  | relative growth/proliferation of SCs compared to FAPs (SCs and FAPs [2]; single media adaptation 0× PDGF-bb (PDGF-bb absent from base media)): promoted the relative growth/proliferation of SCs compared to FAPs
B2 |  | the percentage of SCs remained high | percentage of SCs in total cells (SCs and FAPs) over long-term proliferation (SCs and FAPs [3]; listed as Vitronectin): allow for maintaining high percentages of SCs during proliferation
